Measured values as given in EPA's CvTdb concentration-time database.
Several values for one entry are separate records, joined by “and”; a condition that tells them apart may be missing. Equal entries are not always repeated.

Tested on: rat
Assay: concentration in blood after dosing; negative times count back from the end of exposure
Conditions: dosed: tert-amyl methyl ether, inhalation, duration: 6 hr, male, F344 (Charles River)

CCC(C)(C)OC [tertiary amyl methyl ether]
Conditions | concentration in blood
0.2936 h, 2500 ppm | 40100 ng/mL
0.2946 h, 2500 ppm | 38200 ng/mL
0.2952 h, 2500 ppm | 37100 ng/mL
0.4294 h, 100 ppm | 828 ng/mL
0.4521 h, 100 ppm | 1040 ng/mL
0.454 h, 100 ppm | 626 ng/mL
0.4709 h, 500 ppm | 5800 ng/mL
0.4728 h, 500 ppm | 4750 ng/mL
0.4735 h, 500 ppm | 4380 ng/mL
0.8269 h, 2500 ppm | 31500 ng/mL
0.8277 h, 2500 ppm | 30000 ng/mL
0.8285 h, 2500 ppm | 28500 ng/mL
0.8324 h, 2500 ppm | 20900 ng/mL
0.9984 h, 100 ppm | 528 ng/mL
0.9987 h, 100 ppm | 470 ng/mL
0.9992 h, 100 ppm | 366 ng/mL
1.018 h, 500 ppm | 3640 ng/mL and 3270 ng/mL
1.021 h, 500 ppm | 1850 ng/mL
1.733 h, 100 ppm | 268 ng/mL
1.755 h, 100 ppm | 523 ng/mL
1.756 h, 100 ppm | 418 ng/mL
1.756 h, 500 ppm | 1480 ng/mL
1.757 h, 500 ppm | 741 ng/mL
1.926 h, 2500 ppm | 12000 ng/mL
1.927 h, 2500 ppm | 9450 ng/mL
1.928 h, 2500 ppm | 6650 ng/mL
3.92 h, 2500 ppm | 4450 ng/mL
3.921 h, 2500 ppm | 2070 ng/mL
3.993 h, 500 ppm | 370 ng/mL
9.964 h, 500 ppm | 61.7 ng/mL
17.98 h, 2500 ppm | 42 ng/mL
176 s, 100 ppm | 1240 ng/mL
260 s, 100 ppm | 1350 ng/mL
269 s, 100 ppm | 782 ng/mL
284 s, 500 ppm | 10600 ng/mL
292 s, 500 ppm | 9510 ng/mL
299 s, 500 ppm | 8400 ng/mL
309 s, 500 ppm | 6910 ng/mL

during exposure
Conditions | concentration in blood
-254 s, 2500 ppm | 82700 ng/mL
-248 s, 2500 ppm | 79200 ng/mL
-228 s, 500 ppm | 18600 ng/mL
-5.888 h, 2500 ppm | 24900 ng/mL
-5.887 h, 100 ppm | 1060 ng/mL
-5.887 h, 2500 ppm | 22400 ng/mL
-5.886 h, 2500 ppm | 20000 ng/mL
-5.884 h, 2500 ppm | 17200 ng/mL
-5.883 h, 2500 ppm | 14400 ng/mL
-5.878 h, 500 ppm | 2960 ng/mL
-5.864 h, 100 ppm | 1190 ng/mL
-5.863 h, 100 ppm | 1130 ng/mL
-5.858 h, 2500 ppm | 27500 ng/mL
-5.853 h, 500 ppm | 6980 ng/mL
-5.85 h, 500 ppm | 5560 ng/mL
-5.848 h, 500 ppm | 4010 ng/mL
-5.841 h, 100 ppm | 1460 ng/mL
-5.522 h, 2500 ppm | 37700 ng/mL
-5.521 h, 2500 ppm | 36200 ng/mL
-5.494 h, 2500 ppm | 44100 ng/mL
-5.492 h, 2500 ppm | 41100 ng/mL
-5.475 h, 500 ppm | 9570 ng/mL
-5.474 h, 500 ppm | 9200 ng/mL
-5.464 h, 100 ppm | 1660 ng/mL and 1610 ng/mL
-5.442 h, 100 ppm | 2030 ng/mL
-5.158 h, 2500 ppm | 56700 ng/mL
-5.157 h, 2500 ppm | 55100 ng/mL
-5.131 h, 2500 ppm | 64200 ng/mL
-5.129 h, 2500 ppm | 60300 ng/mL
-5.111 h, 100 ppm | 2080 ng/mL
-5.109 h, 100 ppm | 1560 ng/mL
-5.099 h, 500 ppm | 13500 ng/mL
-5.093 h, 500 ppm | 10600 ng/mL
-5.092 h, 100 ppm | 3060 ng/mL
-5.089 h, 100 ppm | 2490 ng/mL
-4.169 h, 100 ppm | 2960 ng/mL
-4.167 h, 100 ppm | 2490 ng/mL
-4.165 h, 100 ppm | 2180 ng/mL
-4.07 h, 100 ppm | 1980 ng/mL
-4.067 h, 2500 ppm | 51500 ng/mL
-4.046 h, 2500 ppm | 72000 ng/mL
-4.045 h, 2500 ppm | 69400 ng/mL
-4.044 h, 2500 ppm | 66600 ng/mL
-4.016 h, 500 ppm | 15000 ng/mL
-3.979 h, 500 ppm | 12000 ng/mL
-2.249 h, 2500 ppm | 85700 ng/mL
-2.248 h, 2500 ppm | 83400 ng/mL
-1.978 h, 500 ppm | 17800 ng/mL
-1.975 h, 500 ppm | 16400 ng/mL
-1.969 h, 100 ppm | 2860 ng/mL
-1.968 h, 100 ppm | 2600 ng/mL
-1.948 h, 100 ppm | 3320 ng/mL
-1.945 h, 100 ppm | 2760 ng/mL
-0.1231 h, 500 ppm | 16400 ng/mL
-0.1186 h, 500 ppm | 13900 ng/mL
-0.1052 h, 2500 ppm | 89600 ng/mL
-0.1033 h, 100 ppm | 3440 ng/mL
-0.1027 h, 100 ppm | 3320 ng/mL
-0.1027 h, 2500 ppm | 84600 ng/mL
-0.1008 h, 100 ppm | 2910 ng/mL
